# Assay results from US20240165311A1, “STEM CELLS FOR USE IN ECMO TECHNOLOGY” (priority 2021, published 2024).
# Assays:
# [1] = test system: human PBMCs activated with anti-CD3/anti-CD28; assay: PBMC:MSC co-culture, cell composition after 24 hours of activation (FACS); conditions: Prednisolone 125 nM
# Experimental: (§1) Freshly isolated human PBMCs, pooled from three donors, were activated with anti-CD3/anti-CD28 at 10 μg/ml and 5 μg/ml respectively in presence of MSCs ex vivo for 24 or 72 hours. Following activation, cells were analysed for effects on cellular composition after 24 hours and for effects on cellular composition and cell proliferation using CFSE after 72 hours. In addition, supernatants collected after 24 hours of activation were analysed for cytokine levels using Luminex.
# (§2) Peripheral Blood Mononuclear Cells (PBMCs) were isolated from leucocyte concentrate from three different donors (acquired from Blodcentralen, Lunds Universitetssjukhus, Lund, Sweden) through gradient centrifugation at 400×g for 40 minutes using Ficoll. Red blood cells (RBCs) were lysed using BD Pharmlyse buffer 10× diluted in milliQ water for 3 minutes at room temperature (RT). Cells were washed and the isolated PBMCs were pooled. Cell concentration was determined using a Scepter cell counter (Millipore Merck, MA. USA). Cells were diluted to 1×10^7 cells/ml in PBS. Pooled PBMCs were split into 2 different tubes. Cells in tube 1 was stained with CFSE at 5 μM for 5 minutes (dark, RT). CFSE stained cells were washed with an equal volume of FBS to stop the reaction and washed again with PBS. Cells in tube two was left in PBS.
# (§3) MSCs (donor 1, donor 2, donor 3, and AD-MSC control cells) were provided in 8 different tubes, two for each cell type (in different medias (M3 and M4). All cells (PBMCs and MSCs) were diluted in the two different cell culture media (M3 and M4) to a final concentration of 2*10^6 cells/ml. Media was supplemented with anti-CD28 at 5 μg/ml. Cells were added to anti-CD3 (1 μg/well, 100 μl/well) coated U bottom cell culture plates according to the layout below, 200 μl/well in different PBMC:MSC ratios (1:10, 1:5, 1:2.5, 1:0 and 0:1) with a total amount of cells at 4*10^5 cells/well.
# (§4) Included in the assay were also controls (stimulated and unstimulated PBMCs) and two reference drugs, e.g. cyclosporine (CsA) and Prednisolone (Pred). When plating controls, cells were spun down and diluted in M3 or M4 at 4*10^6 cells/ml, with a total amount of cells at 4*10^5 cells/well. 100 μl PBMCs were added per well. CsA was added at a final concentration of 10 μg/ml and Prednisolone was added at a final concentration of 125 nM (700 μl/well). Medium was added to unstimulated control wells (700 μl/well). Cells were incubated for 24 or 72 hours at 37° C., 5% CO2. See also FIG. 19.
# Following 24 hours of incubation, cells in FACS/Luminex plates were stained with antibodies detecting CD73, CD4, CD8, CD80, CD206, CD163 and PD-1 in staining buffer (PBS supplemented with 1% BSA). Briefly, cells were transferred to V bottom plates and centrifuged at 360×g for 2 min. Supernatant was transferred to a storage plate and put in −20° C. until analysis using Luminex. Cells were washed in PBS, centrifuged at 360×g for 2 min at 4° C. Supernatant was flicked off and antibodies against surface markers were added. Cells were incubated at +4° C. for 20 minutes (dark). After incubation, cells were washed 1× in PBS, centrifuged at 360×g for 2 min at 4° C. Cells were resuspended in PBS and acquired using the Attune Nxt flow cytometer. Compensation was performed using beads—AbC Total Compensation capture beads and negative beads. Since compensation was done using beads, FSC and SSC were changed before analysing samples and adjusted to cells. Lasers were not changed after compensation. 150 μl was analysed from each sample.
# [2] = test system: human PBMCs activated with anti-CD3/anti-CD28; assay: PBMC:MSC co-culture, proliferation and cell composition after 72 hours of activation (FACS after CFSE labeling); conditions: MSCs in co-culture, Prednisolone 125 nM
# Experimental: as §1, §2, §3, §4
# After 72 hours of incubation, CFSE stained cells were stained with CD4, CD8, CD80, CD206 and CD163 in staining buffer. Briefly, cells were transferred to V bottom plates, centrifuged at 360×g for 2 min. Cells were washed in PBS, centrifuged at 360×g for 2 min at 4° C. Supernatant was flicked off and surface markers were added. Cells were incubated at +4° C. for 20 minutes. After incubation, cells were washed 1× in PBS, centrifuged at 360×g for 2 min at 4° C. Cells were resuspended in PBS and acquired using the Attune Nxt flow cytometer. Compensation was performed using beads—AbC Total Compensation capture beads and negative beads for surface markers. For CFSE compensation, newly CFSE stained cells were used. Since compensation was done using both beads and cells, FSC and SSC were changed and adjusted to beads or cells. […]
# Graphs were performed using Prism 8 for Mac OS X (GraphPad Software, San Diego, CA, USA). […] The inhibitory effect of MSCs on PBMC proliferation was calculated according to the two formulas below: […]
# [3] = test system: human PBMCs activated with anti-CD3/anti-CD28; assay: Cytokine analysis after 24 hours of activation (Luminex); type: cell-based; conditions: stimulated PBMCs, Prednisolone 125 nM
# Experimental: Cells were washed and the isolated PBMCs were pooled. […] Pooled PBMCs were split into 2 different tubes. […] Cells in tube two was left in PBS. […] See also FIG. 19. Supernatant (24 hours incubation) was analysed for cytokines using the 12-[…]-12 Luminex kit. All reagents, standard and samples were prepared at room temperature and according to manufacturer's instruction. Briefly, 50 μl of standard or sample was added to wells. Microparticles were added to samples and standard and samples were incubated for 2 hours at room temperature on a horizontal orbital shaker (800 rpm). Plate was washed 3× in washing buffer using a magnetic plate. Biotin-antibody was added and incubated dark for 1 hour at room temperature on a horizontal orbital shaker (800 rpm). Plate was washed 3× in washing buffer using a magnetic plate. Streptavidin-PE was added to each well and incubated dark at room temperature on a horizontal orbital shaker (800 rpm) for 30 minutes. Plate was washed 3× in washing buffer using a magnetic plate. Microparticles were resuspended in 100 μl washing buffer, incubated for 2 minutes on a horizontal orbital shaker (800 rpm). Samples were analysed on a Bio-Rad Luminex analyzer.
smiles,measurement,setting,value
C[C@]12C=CC(=O)C=C1CC[C@@H]1[C@@H]2[C@@H](O)C[C@@]2(C)[C@H]1CC[C@]2(O)C(=O)CO [Prednisolone],M2 macrophage expression,[1]; CsA 10 μg/ml,no effect
same,expression level of M1 macrophages,[1]; CsA 10 μg/ml,no effect
same,macrophage cell composition,[1],did not have an effect
same,T cell activation,"[1]; reference drug treated PBMCs, CsA 10 μg/ml",only slightly inhibits
same,% T helper cells,[1]; reference drug treated PBMCs,higher levels
same,T helper cells (% ),"[2]; 72 hours of incubation, CsA 10 μg/ml",no effect
same,M1 proliferation (CFSE),"[2]; 72 hours, CsA 10 μg/ml",No effect
same,M2 expression levels,"[2]; 72 hours, CsA 10 μg/ml",no effect
same,M2 proliferation (CFSE),"[2]; 72 hours, CsA 10 μg/ml",No effect
same,M1 expression levels,[2]; 72 hours,no effect
same,IL-6 levels in supernatant,[3]; CsA 10 μg/ml,inhibits
same,"the other analysed cytokines, levels in supernatant","[3]; CsA 10 μg/ml, 12-plex Luminex",No inhibitory effect
same,TNF-α levels in supernatant,"[3]; MSCs at all ratios, CsA 10 μg/ml",inhibits
same,IL12/IL23p40 levels in supernatant,[3]; MSCs at all ratios,inhibits
same,HGF levels in supernatant,"[3]; MSCs dose-dependent, CsA 10 μg/ml",inhibits
